Data from ChEMBL document CHEMBL1201862, “PubChem BioAssay data set” (2004).
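All cell lines were grown in 96-well plates and treated with compound for 48 hours. The concentration for 50% growth inhibition is given as GI50.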 The source made the active and inactive calls. No stated cut-off is given here; in the data, active = GI50 up to about 1.1 µM and inactive = higher.

Columns and labels:
Experiment in all cases: NCI tumour cell line growth inhibition, 48 h
HOP-92 = tested on: HOP-92
M19-MEL = tested on: M19-MEL
HCT-116 = tested on: HCT-116
CCRF-CEM = tested on: CCRF-CEM
KM12 = tested on: KM12
SNB-78 = tested on: SNB-78
A498 = tested on: A498
RXF 393 = tested on: RXF 393
EKVX = tested on: EKVX
NCI-H460 = tested on: NCI-H460
U-251 = tested on: U-251
SK-OV-3 = tested on: SK-OV-3
UACC-62 = tested on: UACC-62
SN12C = tested on: SN12C
LXFL 529 = tested on: LXFL 529
Malme-3M = tested on: Malme-3M
SK-MEL-2 = tested on: SK-MEL-2
M14 = tested on: M14
OVCAR-3 = tested on: OVCAR-3
SW-620 = tested on: SW-620
SR = tested on: SR
SNB-19 = tested on: SNB-19
NCI-H23 = tested on: NCI-H23
DMS-114 = tested on: DMS-114
TK-10 = tested on: TK-10
HCC 2998 = tested on: HCC 2998
SF-268 = tested on: SF-268
786-0 = tested on: 786-0
UO-31 = tested on: UO-31
IGROV-1 = tested on: IGROV-1
OVCAR-5 = tested on: OVCAR-5
OVCAR-4 = tested on: OVCAR-4
MOLT-4 = tested on: MOLT-4
SK-MEL-28 = tested on: SK-MEL-28
RPMI-8226 = tested on: RPMI-8226
OVCAR-8 = tested on: OVCAR-8
COLO 205 = tested on: COLO 205
UACC-257 = tested on: UACC-257
HL-60 = tested on: HL-60
A549 = tested on: A549
KM-20L2 = tested on: KM-20L2
HT-29 = tested on: HT-29
CAKI-1 = tested on: CAKI-1
HOP-62 = tested on: HOP-62
HOP-18 = tested on: HOP-18
NCI-H522 = tested on: NCI-H522
K562 = tested on: K562
DLD-1 = tested on: DLD-1
SF-295 = tested on: SF-295
SNB-75 = tested on: SNB-75
LOX IMVI = tested on: LOX IMVI
NCI-H226 = tested on: NCI-H226
SF-539 = tested on: SF-539
ACHN = tested on: ACHN
XF498 = tested on: XF498
DMS-273 = tested on: DMS-273
HCT-15 = tested on: HCT-15
RXF 631 = tested on: RXF 631
SK-MEL-5 = tested on: SK-MEL-5

Measured: GI50

O=c1[nH]c2ccccc2cc1C(Cl)=C(Cl)Cl
inactive: HOP-92 > 100 µM | M19-MEL > 100 µM | HCT-116 > 100 µM | CCRF-CEM > 100 µM | KM12 > 100 µM | SNB-78 > 100 µM | A498 > 100 µM | RXF 393 > 100 µM | EKVX 35.7 µM | NCI-H460 > 100 µM | U-251 > 100 µM | SK-OV-3 > 100 µM | UACC-62 > 100 µM | SN12C > 100 µM | LXFL 529 > 100 µM | Malme-3M > 100 µM | SK-MEL-2 > 100 µM | M14 > 100 µM | OVCAR-3 > 100 µM | SW-620 > 100 µM | SR > 100 µM | SNB-19 > 100 µM | NCI-H23 > 100 µM | DMS-114 > 100 µM | TK-10 > 100 µM | HCC 2998 > 100 µM | SF-268 > 100 µM | 786-0 > 100 µM | UO-31 > 100 µM | IGROV-1 > 100 µM | OVCAR-5 > 100 µM | OVCAR-4 > 100 µM | MOLT-4 > 100 µM | SK-MEL-28 > 100 µM | RPMI-8226 > 100 µM | OVCAR-8 > 100 µM | COLO 205 > 100 µM | UACC-257 > 100 µM | HL-60 53.7 µM | A549 > 100 µM | KM-20L2 > 100 µM | HT-29 > 100 µM | CAKI-1 > 100 µM | HOP-62 > 100 µM | HOP-18 > 100 µM | NCI-H522 > 100 µM | K562 > 100 µM | DLD-1 > 100 µM | SF-295 > 100 µM | SNB-75 35.2 µM | LOX IMVI > 100 µM | NCI-H226 > 100 µM | SF-539 > 100 µM | ACHN > 100 µM | XF498 > 100 µM | DMS-273 > 100 µM

CCN(CC)C(c1ccc(N(C)C)cc1)C(c1ccc(N(C)C)cc1)N(CC)CC (configuration not stated)
inactive: HOP-92 13.2 µM | M19-MEL 23.9 µM | HCT-116 35.2 µM | CCRF-CEM 26 µM | RXF 631 > 72.9 µM | KM12 22.9 µM | SNB-78 21.2 µM | A498 > 72.9 µM | RXF 393 25.9 µM | EKVX > 72.9 µM | NCI-H460 69.2 µM | U-251 > 72.9 µM | SK-OV-3 > 72.9 µM | UACC-62 20.1 µM | SN12C > 72.9 µM | LXFL 529 30.3 µM | Malme-3M 17 µM | SK-MEL-2 22.8 µM | M14 33.3 µM | OVCAR-3 21.5 µM | SW-620 21.4 µM | SNB-19 62.8 µM | NCI-H23 48.3 µM | DMS-114 14.5 µM | TK-10 > 72.9 µM | HCC 2998 40.4 µM | SF-268 65 µM | 786-0 61.2 µM | IGROV-1 47.6 µM | OVCAR-5 > 72.9 µM | OVCAR-4 12.9 µM | MOLT-4 30.3 µM | SK-MEL-28 26.4 µM | RPMI-8226 21.9 µM | OVCAR-8 > 72.9 µM | COLO 205 43.3 µM | UACC-257 36.6 µM | HL-60 14.8 µM | A549 > 72.9 µM | KM-20L2 64 µM | HT-29 21.6 µM | CAKI-1 25.9 µM | HOP-62 61.5 µM | NCI-H522 > 7.29 µM | K562 15.8 µM | SF-295 39.2 µM | SNB-75 14.2 µM | NCI-H226 27.3 µM | SF-539 36.5 µM | ACHN 47 µM | SK-MEL-5 16.8 µM | DMS-273 44.8 µM
30.2 µM: HCT-15

N[C@H]1C2C3CC4C5CC(C42)C1(c1ccccc1)C53 (some centres not stated)
inactive: HOP-92 65.8 µM | M19-MEL > 100 µM | HCT-116 > 100 µM | CCRF-CEM > 100 µM | KM12 > 100 µM | SNB-78 > 100 µM | A498 > 100 µM | RXF 393 45.1 µM | EKVX > 100 µM | NCI-H460 > 100 µM | U-251 > 100 µM | SK-OV-3 > 100 µM | UACC-62 > 100 µM | SN12C > 100 µM | LXFL 529 > 100 µM | Malme-3M > 100 µM | SK-MEL-2 > 100 µM | M14 > 100 µM | OVCAR-3 > 100 µM | SW-620 > 100 µM | SR > 100 µM | SNB-19 > 100 µM | NCI-H23 > 100 µM | DMS-114 > 100 µM | TK-10 > 100 µM | HCC 2998 29.7 µM | SF-268 > 100 µM | 786-0 > 100 µM | UO-31 > 100 µM | IGROV-1 > 100 µM | OVCAR-5 75 µM | OVCAR-4 > 100 µM | MOLT-4 > 100 µM | SK-MEL-28 > 100 µM | RPMI-8226 > 100 µM | OVCAR-8 > 100 µM | COLO 205 81.3 µM | UACC-257 > 10 µM | HL-60 > 100 µM | A549 > 100 µM | KM-20L2 > 100 µM | HT-29 62.5 µM | CAKI-1 > 100 µM | HOP-62 > 100 µM | HOP-18 > 100 µM | NCI-H522 > 100 µM | K562 > 100 µM | DLD-1 > 100 µM | SF-295 > 100 µM | SNB-75 > 100 µM | LOX IMVI > 100 µM | NCI-H226 > 100 µM | SF-539 > 100 µM | ACHN > 100 µM | SK-MEL-5 > 100 µM | XF498 > 100 µM | DMS-273 > 100 µM
> 100 µM: HCT-15
